The subject of the series is GENE-TOX genotoxicity assays, various organisms and cells. Description: GENE-TOX mutagenicity studies. As to conditions: for call: Assay Type: In vivo carcinogenicity studies.
The mark [1] stands for this setting: Species/Cell Type: Nonhuman, Assay Code: CCGT, Evaluation Type: Evaluation A (Pre-1980).
Setting [2] is: Species/Cell Type: Salmonella typhimurium (one or more of the five standard strains: TA98, TA100, TA1535, TA1537, and TA1538), Assay Type: Histidine reverse gene mutation, Ames assay, Assay Code: SAL+, Evaluation Type: Evaluation A (Pre-1980).
[3] abbreviates: Species/Cell Type: Salmonella typhimurium (one or more of the five standard strains: TA98, TA100, TA1535, TA1537, and TA1538), Assay Type: Histidine reverse gene mutation, Ames assay, Assay Code: SALT, Evaluation Type: Evaluation A (Pre-1980).
The mark [4] stands for this setting: Species/Cell Type: Nonhuman, Assay Type: Sister-chromatid exchange (SCE) in vivo, Assay Code: SC3+, Evaluation Type: Evaluation B (Post-1980).
The mark [5] stands for this setting: Species/Cell Type: Chinese hamster lung (V79) cells, Assay Type: Forward gene mutation at the HPRT or ouabain locus, Assay Code: V79+, Evaluation Type: Evaluation A (Pre-1980).
Where [6] appears, read: Species/Cell Type: Salmonella typhimurium (one or more of the five standard strains: TA98, TA100, TA1535, TA1537, and TA1538), Assay Type: Histidine reverse gene mutation, Ames assay, Assay Code: SAL+*, Activation: With metabolic activation, Evaluation Type: Evaluation A (Pre-1980).

The structures appear in SMILES notation. Activity calls are given as the source filed them. How the calls were made is not given here.

As to `Oc1c2ccccc2c2ccc3cccc4ccc1c2c43`, the mutagenic call (Species/Cell Type: Chinese hamster lung (V79) cells, Assay Type: Forward gene mutation at the HPRT or ouabain locus, Assay Code: V79+/-*, Activation: With metabolic activation, Evaluation Type: Evaluation A (Pre-1980)) was “inactive; positive without activation, negative with activation” and the mutagenic call under setting [2] is “active; positive”. For the same compound, under setting [1], the call is given as “no conclusion”.

Regarding `CN(CCCCO)N=O`, the mutagenic call under setting [3] is recorded as “no conclusion”.

Take `NNCCc1ccccc1`: the mutagenic call by setting is: (Species/Cell Type: Human, Sex: Male, Assay Type: Sperm morphology, Assay Code: SPHT, Evaluation Type: Evaluation A (Pre-1980)) “no conclusion”; under setting [4], “active; positive”.

`CC1(C)C(C=C(Cl)Cl)C1C(=O)OCc1cccc(Oc2ccccc2)c1` (stereo unspecified): the mutagenic call reads like this: (Species/Cell Type: Human diploid fibroblasts, Assay Type: Unscheduled DNA synthesis (UDS) in vitro, DNA effects, Assay Code: UDH-, Evaluation Type: Evaluation A (Pre-1980)) “inactive; negative”; (Species/Cell Type: Saccharomyces cerevisiae, Assay Type: Mitotic recombination or gene conversion, Assay Code: YEH-, Evaluation Type: Evaluation A (Pre-1980)) “inactive; negative”.

`C=CC(=O)OC`: the mutagenic call (Species/Cell Type: Mammalian polychromatic erythrocytes, Assay Type: Micronucleus test, chromosome aberrations, Assay Code: MNT+U, Dose Response: Unconfirmed positive response, Evaluation Type: Evaluation B (Post-1980)) was “active; positive”.

As for `CCCCN(CCCC)N=O`, the mutagenic call under setting [5] was “active; positive”; the mutagenic call (Species/Cell Type: Chinese hamster ovary (CHO) cells, Assay Type: Forward gene mutation at the HPRT locus, Assay Code: CHO+*, Activation: With metabolic activation, Evaluation Type: Evaluation B (Post-1980)) was “active; positive”; the mutagenic call (Species/Cell Type: Human diploid fibroblasts, Assay Type: Unscheduled DNA synthesis (UDS) in vitro, DNA effects, Assay Code: UDHT, Evaluation Type: Evaluation A (Pre-1980)) was “no conclusion”; the mutagenic call (Species/Cell Type: Mammalian polychromatic erythrocytes, Assay Type: Micronucleus test, chromosome aberrations, Assay Code: MNTT, Evaluation Type: Evaluation A (Pre-1980)) is listed as “no conclusion”; the mutagenic call (Species/Cell Type: Mouse, Sex: Male, Assay Type: Sperm morphology, Assay Code: SPI-, Evaluation Type: Evaluation A (Pre-1980)) was “inactive; negative”; the mutagenic call (Species/Cell Type: Nonhuman, Assay Type: Chromosome aberrations in vitro, Assay Code: CY&-, Evaluation Type: Evaluation A (Pre-1980)) was “inactive; negative”. The mutagenic call by setting is: (Species/Cell Type: Nonhuman, Assay Type: Sister-chromatid exchange (SCE) in vitro, Assay Code: SC2+D, Dose Response: With dose response, Evaluation Type: Evaluation B (Post-1980)) “active; positive”; (Species/Cell Type: Nonhuman, Assay Type: Sister-chromatid exchange (SCE) in vitro, Assay Code: SC2T, Evaluation Type: Evaluation A (Pre-1980)) “no conclusion”; under setting [4], “active; positive”; under setting [6], “active; positive”. Further, the call (Species/Cell Type: Nonhuman, Assay Code: CCG+, Evaluation Type: Evaluation A (Pre-1980)) was “active; positive”.

Consider `Oc1ccc2c(c1)cc1ccc3cccc4ccc2c1c34`, for which the mutagenic call is, setting by setting: (Species/Cell Type: Chinese hamster lung (V79) cells, Assay Type: Forward gene mutation at the HPRT or ouabain locus, Assay Code: V79-*, Activation: With metabolic activation, Evaluation Type: Evaluation A (Pre-1980)) “inactive; negative”; under setting [3], “no conclusion”. Further, the call under setting [1] was “no conclusion”.

With `CCNc1nc(Cl)nc(NC(C)(C)C#N)n1`, the mutagenic call (Species/Cell Type: Drosophila melanogaster, Assay Type: Aneuploidy, partial sex chromosome loss, chromosome aberrations, Assay Code: DAPT, Evaluation Type: Evaluation A (Pre-1980)) was “no conclusion”; the mutagenic call (Species/Cell Type: Drosophila melanogaster, Assay Type: Aneuploidy, sex chromosome gain, chromosome aberrations, Assay Code: DAGT, Evaluation Type: Evaluation A (Pre-1980)) is “no conclusion”; the mutagenic call (Species/Cell Type: Drosophila melanogaster, Assay Type: Aneuploidy, whole sex chromosome loss, chromosome aberrations, Assay Code: DAC-M, Evaluation Type: Evaluation A (Pre-1980)) is “inactive; negative”; the mutagenic call (Species/Cell Type: Drosophila melanogaster, Assay Type: Sex-linked recessive lethal gene mutation, Assay Code: SRLT, Evaluation Type: Evaluation A (Pre-1980)) was “no conclusion”; the mutagenic call (Species/Cell Type: Neurospora crassa, Assay Type: Aneuploidy, chromosome aberrations, Assay Code: NEN-, Evaluation Type: Evaluation A (Pre-1980)) was “inactive; negative”; the mutagenic call (Species/Cell Type: Tradescantia species, Assay Type: Chromosome aberrations, Assay Code: TRC+, Evaluation Type: Evaluation A (Pre-1980)) is “active; positive”. Besides, the mutagenic call (Species/Cell Type: Vicia faba, Assay Type: Chromosome aberrations, Assay Code: VIC+, Evaluation Type: Evaluation A (Pre-1980)) is “active; positive” and the mutagenic call (Species/Cell Type: Zea mays (corn), Assay Type: Gene mutation, Assay Code: ZEM+, Evaluation Type: Evaluation A (Pre-1980)) was “active; positive”.

In the case of `C/C=C1/C[C@@H](C)[C@@](C)(O)C(=O)OCC2=CCN3CC[C@@H](OC1=O)[C@@H]23`, the mutagenic call (Species/Cell Type: Drosophila melanogaster, Assay Type: Sex-linked recessive lethal gene mutation, Assay Code: SRL+, Evaluation Type: Evaluation A (Pre-1980)) was “active; positive”.

With `c1ccc(N=NNc2ccccc2)cc1`, under “Species/Cell Type: Allium cepa, Assay Type: Chromosome aberrations, Assay Code: ALC+, Evaluation Type: Evaluation A (Pre-1980)”, the mutagenic call is “active; positive”.

For the compound `O=[Si]=O`, the mutagenic call (Species/Cell Type: Nonhuman, Assay Type: Sister-chromatid exchange (SCE) in vitro, Assay Code: SC2T, Evaluation Type: Evaluation B (Post-1980)) is “no conclusion”.

With `O=C1c2ccccc2C(=O)c2c1cc(O)c(CO)c2O`, under setting [2], the mutagenic call is “active; positive”.

On to `Cc1cc(N=Nc2c(O)ccc3ccccc23)c(S(=O)(=O)O)cc1Cl`, for which, under setting [3], the mutagenic call was “no conclusion”.

In the case of `CCCCNC(=O)NS(=O)(=O)c1ccc(N)cc1`, the mutagenic call (Species/Cell Type: Nonhuman, Assay Type: Sister-chromatid exchange (SCE) in vivo, Assay Code: SC3T, Evaluation Type: Evaluation B (Post-1980)) is “no conclusion”.

On to `Cc1ccc2cc3c(ccc4ccccc43)c3c2c1CC3=O`, for which the mutagenic call reads like this: under setting [5], “active; positive”; under setting [6], “active; positive”. In addition, the call under setting [1] was “no conclusion”.

Regarding `O=[N+]([O-])c1cccc(O)c1`, where the note is “Species/Cell Type: Allium cepa, Assay Type: Chromosome aberrations, Assay Code: ALC-, Evaluation Type: Evaluation A (Pre-1980)”, the mutagenic call was “inactive; negative”.

These data come from PubChem BioAssay AID1259408 (Genetic Toxicology Data Bank (GENE-TOX), 2018).
